Experimental data taken from PubChem BioAssay (NCI).
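Briefly, cells in 96-well plates were exposed to five compound concentrations for 48 h, and endpoints were estimated by linear interpolation. GI50 = concentration required for 50% inhibition of growth. TGI marks complete inhibition of growth.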

Tests used:
Assay in all cases: growth of human tumour cells (NCI), 48 h
786-0 renal = system: 786-0 renal
SW-620 colon = system: SW-620 colon
SF-268 CNS = system: SF-268 CNS
HCC-2998 colon = system: HCC-2998 colon
OVCAR-8 ovarian = system: OVCAR-8 ovarian
M14 melanoma = system: M14 melanoma
UACC-62 melanoma = system: UACC-62 melanoma
KM12 colon = system: KM12 colon
K-562 leukemia = system: K-562 leukemia
MOLT-4 leukemia = system: MOLT-4 leukemia

Row | Compound | TGI (786-0 renal) | TGI (SW-620 colon) | TGI (SF-268 CNS) | TGI (HCC-2998 colon) | TGI (OVCAR-8 ovarian) | TGI (M14 melanoma) | TGI (UACC-62 melanoma) | TGI (KM12 colon) | GI50 (786-0 renal) | GI50 (SW-620 colon) | GI50 (SF-268 CNS) | GI50 (K-562 leukemia) | TGI (K-562 leukemia) | GI50 (HCC-2998 colon) | GI50 (MOLT-4 leukemia) | TGI (MOLT-4 leukemia) | GI50 (OVCAR-8 ovarian) | GI50 (M14 melanoma) | GI50 (UACC-62 melanoma) | GI50 (KM12 colon)
1 | CC(C)C12CCC3(CCC4C(C)(C(=O)O)CCCC4(C)C3C1)C(CN)C2 (stereo unspecified) | 54.4 µM | > 100 µM | > 100 µM | 36.2 µM | > 100 µM | > 100 µM | > 100 µM | > 100 µM |  |  |  |  |  |  |  |  |  |  |  | 
2 | COc1cc(/C=C/C(=O)c2c(-c3ccc(Cl)cc3)nc3sc(C)nn23)cc(OC)c1OC | > 100 µM | > 100 µM | > 100 µM | > 100 µM | > 100 µM | > 100 µM | > 100 µM | > 100 µM | 51.2 µM | 10.2 µM | 24.6 µM | 4.49 µM | > 100 µM | > 100 µM | 7.59 µM | > 100 µM | 5.62 µM | 55.2 µM | 5.15 µM | 21.6 µM
3 | COC(=O)C(NC(=O)c1ccccc1)c1ccc(OC)c(I)c1 (stereo unspecified) | > 100 µM | > 100 µM | > 100 µM | > 100 µM | > 100 µM | > 100 µM | > 100 µM | > 100 µM | > 100 µM | > 100 µM | > 100 µM | 35.6 µM | > 100 µM | 54.5 µM | 48.9 µM | > 100 µM | > 100 µM | 52.3 µM | 52.9 µM | > 100 µM
4 | O=C(/C=C/N1CCN(c2cccc(Cl)c2)CC1)c1ccc(Cl)cc1 | > 100 µM | 99.3 µM | 53.2 µM | 50.5 µM | > 100 µM | 42.3 µM | 83.5 µM | 69.8 µM | 33.9 µM | 30 µM | 19.8 µM | 28 µM | > 100 µM | 24.9 µM | 33.5 µM | > 100 µM | 34.5 µM | 19.6 µM | 27.3 µM | 27.1 µM
5 | CN1C/C(=C\c2ccco2)c2nc(N)nc(-c3ccco3)c2C1 | > 100 µM | > 100 µM | > 100 µM | > 100 µM | > 100 µM | > 100 µM | > 100 µM | > 100 µM |  |  |  |  | > 100 µM |  |  | > 100 µM |  |  |  | 
6 | O=C1NC2(CCCCC2)C2=C1CCCCC2 | > 100 µM | > 100 µM | > 100 µM |  | > 100 µM | > 100 µM | > 100 µM | > 100 µM |  |  |  |  | > 100 µM |  |  | > 100 µM |  |  |  | 
7 | COc1cc(COC(=O)NC(Cc2cccs2)C(=O)O)c([N+](=O)[O-])cc1OC (stereo unspecified) | > 100 µM | > 100 µM | > 100 µM | > 100 µM | > 100 µM | > 100 µM | > 100 µM | > 100 µM |  |  |  |  | > 100 µM |  |  | > 100 µM |  |  |  | 
8 | CC(C)c1nc(Cl)c(Cl)c(Cl)n1 | 16.1 µM | 15.6 µM | 9.29 µM | 15.7 µM | 8.07 µM | 19 µM | 23.1 µM | 23.3 µM |  |  |  |  | > 100 µM |  |  | 11.4 µM |  |  |  | 
9 | COC(=O)C1=C(C)N(NC(=O)Nc2ccccc2)C2(N)N(NC(=O)Nc3ccccc3)C(C)=C(C(=O)OC)C12C(=O)OC (stereo unspecified) | > 100 µM | > 100 µM | > 100 µM | > 100 µM | > 100 µM | > 100 µM | > 100 µM |  |  |  |  |  | > 100 µM |  |  | 71.3 µM |  |  |  | 
